In US10307403B2, “Polymorphic forms and process” (GALECTO BIOTECH AB, priority 2015, dated 2019):

Columns and labels:
Assay type in all cases: physicochemical
[1] = Stability of micronized Form 1 under ICH conditions
Source text: There is no increase in impurities and both the particle size and crystalline form remain unchanged.

[2] = Aerodynamic particle size determination (APSD) via New Generation Impactor (NGI); details: 20 mg in size 3 HPMC capsule, Plastiape Monodose inhaler
Experimental: To compare in vitro performance of the different forms for use in inhalation products, an aerodynamic particle size determination (APSD) was performed via New Generation Impactor (NGI) for Form 5 material produced via microfluidization and the amorphous form produced via spray drying. These were compared with the APSD obtained from micronized Form 1 material. For each APSD test, 20 mg 3,3′-Dideoxy-3,3′-bis-[4-(3-fluorophenyl)-1H-1,2,3-triazol-1-yl]-1,1′-sulfanediyl-di-β-D-galactopyranoside was filled into a size 3 HPMC capsule and actuated using a Plastiape Monodose inhaler device.

[3] = Solid form stability and moisture uptake
[4] = listed as Amorphous (Spray Drying)
[5] = listed as Form 5 (microfluidization)

Compound: OC[C@H]1O[C@@H](S[C@@H]2O[C@H](CO)[C@H](O)[C@H](n3cc(-c4cccc(F)c4)nn3)[C@H]2O)[C@H](O)[C@@H](n2cc(-c3cccc(F)c3)nn2)[C@H]1O [Form 1, 3,3′-Dideoxy-3,3′-bis-[4-(3-fluorophenyl)-1H-1,2,3-triazol-1-yl]-1,1′-sulfanediyl-di-β-D-galactopyranoside]
- Appearance ([1]; 6 Months @ 40° C./75 RH): Conforms
- Assay ([1]; 6 Months @ 40° C./75 RH): 97.2%
- Particle Size D10 ([1]; 6 Months @ 40° C./75 RH): 0.50 μm
- Particle Size D50 ([1]; 6 Months @ 40° C./75 RH): 1.97 μm
- Particle Size D90 ([1]; 6 Months @ 40° C./75 RH): 4.68 μm
- Polymorphism (crystalline form found) ([1]; 6 Months @ 40° C./75 RH): Form 1
- Specified impurity DEX-IMP-284-B ([1]; 6 Months @ 40° C./75 RH): 0.89%
- Specified impurity DEX-IMP-284-C ([1]; 6 Months @ 40° C./75 RH): 0.05%
- Total Impurities ([1]; 6 Months @ 40° C./75 RH): 1.57%
- Unspecified impurity 0.922RRT ([1]; 6 Months @ 40° C./75 RH): 0.12%
- Unspecified impurity 1.057RRT ([1]; 6 Months @ 40° C./75 RH): 0.11%
- Unspecified impurity 1.184RRT ([1]; 6 Months @ 40° C./75 RH): 0.34%
- Water Content ([1]; 6 Months @ 40° C./75 RH): 5.2%
- Appearance ([1]; 12 Months 25° C./60 RH): Conforms
- Assay ([1]; 12 Months 25° C./60 RH): 97.7%
- Particle Size D10 ([1]; 12 Months 25° C./60 RH): 0.51 μm
- Particle Size D50 ([1]; 12 Months 25° C./60 RH): 1.84 μm
- Particle Size D90 ([1]; 12 Months 25° C./60 RH): 4.29 μm
- Polymorphism (crystalline form found) ([1]; 12 Months 25° C./60 RH): Form 1
- Specified impurity DEX-IMP-284-B ([1]; 12 Months 25° C./60 RH): 0.89%
- Specified impurity DEX-IMP-284-C ([1]; 12 Months 25° C./60 RH): 0.04%
- Total Impurities ([1]; 12 Months 25° C./60 RH): 1.54%
- Unspecified impurity 0.922RRT ([1]; 12 Months 25° C./60 RH): 0.12%
- Unspecified impurity 1.057RRT ([1]; 12 Months 25° C./60 RH): 0.10%
- Unspecified impurity 1.184RRT ([1]; 12 Months 25° C./60 RH): 0.34%
- Water Content ([1]; 12 Months 25° C./60 RH): 4.4%
- Overall stability conclusion (in words) ([1]; ICH conditions, Table 3A): stable both chemically and physically
- Particle Size D10 ([1]; Initial): 0.56 μm
- Polymorphism (crystalline form found) ([1]; Initial): Form 1
- Unspecified impurity 1.057RRT ([1]; Initial): 0.08%
- Unspecified impurity 1.184RRT ([1]; Initial): 0.34%
- Water Content ([1]; Initial): 4.2%
- Assay ([1]; Initial, criterion 95.0-105.0% w/w): 97.9%
- Appearance ([1]; Initial, criterion white to off-white solid): Conforms
- Specified impurity DEX-IMP-284-B ([1]; Initial, criterion ≤1% (a/a)): 0.90%
- Specified impurity DEX-IMP-284-C ([1]; Initial, criterion ≤1% (a/a)): 0.03%
- Unspecified impurity 0.922RRT ([1]; Initial, criterion ≤1% each (a/a)): 0.12%
- Total Impurities ([1]; Initial, criterion ≤2.5% (a/a)): 1.54%
- Particle Size D50 ([1]; Initial, target D50 ~2 μm): 2.37 μm
- Particle Size D90 ([1]; Initial, target D90 ≤5 μm): 5.09 μm
- Mean Mass Aerodynamic Diameter (MMAD) [2]: in the respirable range
- Fine Particle Dose (FPD) ([2]; listed as Form 1 (micronized)): 7.4 mg
- Fine Particle Fraction (FPF) ([2]; listed as Form 1 (micronized)): 77%
- Mean Mass Aerodynamic Diameter (MMAD) ([2]; listed as Form 1 (micronized)): 2.6 μm
- Stability of the solid form (in words) [3]: stable and does not convert to the other forms over time
- Equilibrium water content after moisture pick-up ([3]; dried upon synthesis, then picks up moisture): 3-5%

Compound: OCC1O[C@@H](SC2O[C@H](CO)C(O)C(n3cc(-c4cccc(F)c4)nn3)[C@H]2O)C(O)C(n2cc(-c3cccc(F)c3)nn2)[C@H]1O (stereo partly drawn) [Amorphous, 3,3′-Dideoxy-3,3′-bis-[4-(3-fluorophenyl)-1H-1,2,3-triazol-1-yl]-1,1′-sulfanediyl-di-β-D-galactopyranoside]
- Mean Mass Aerodynamic Diameter (MMAD) [2]: in the respirable range
- Fine Particle Dose (FPD) [2, 4]: 11.8 mg
- Fine Particle Fraction (FPF) [2, 4]: 91%
- Mean Mass Aerodynamic Diameter (MMAD) [2, 4]: 1.7 μm

Compound: OCC1O[C@@H](SC2O[C@H](CO)C(O)C(n3cc(-c4cccc(F)c4)nn3)[C@H]2O)C(O)C(n2cc(-c3cccc(F)c3)nn2)[C@H]1O (stereo partly drawn) [Form 5, 3,3′-Dideoxy-3,3′-bis-[4-(3-fluorophenyl)-1H-1,2,3-triazol-1-yl]-1,1′-sulfanediyl-di-β-D-galactopyranoside]
- Mean Mass Aerodynamic Diameter (MMAD) [2]: in the respirable range
- Fine Particle Dose (FPD) [2, 5]: 7.7 mg
- Fine Particle Fraction (FPF) [2, 5]: 63%
- Mean Mass Aerodynamic Diameter (MMAD) [2, 5]: 2.3 μm
- Stability of the solid form (in words) [3]: stable
